Test results: PMC7070709, “Design, Synthesis, and In Vitro Evaluation of Hydroxybenzimidazole-Donepezil Analogues as Multitarget-Directed Ligands for the Treatment of Alzheimer’s Disease” (Molecules, 2020)

Legend:
Aβ1–42 with Cu(II) [1] = target: T1, Aβ1–42 with Cu(II) (Homo sapiens, UniProt P05067); experiment: Inhibition of Cu-induced Aβ1–42 aggregation (thioflavin T fluorescence); format: biochemical
Method: The anti-amyloidogenic capacity of the compounds was also evaluated in vitro, in the absence and presence of Cu(II), based on the measurement of the fluorescence emission of Thioflavin T (ThT), a stain known by its Aβ fibril binding capacity. This binding interaction can be analyzed by fluorimetry, since the presence of ThT-fibrils increases the absorbance and the emission of the ThT dye, and it also induces red shifts on the absorbance (from 385 to 446 nm) and emission peaks (from 445 to 485 nm). All the measurements were performed after incubation (24 h, 37 °C) of the self-mediated and Cu^2+-induced Aβ aggregates in the presence/absence of the compounds under evaluation.
Herein, due to solubility problems of some compounds in the phosphate buffer (0.215 M, pH 8.0) of the working medium, the assays were carried out in the presence of 40 μM concentration of inhibitor and 20 μM in the case of compound 4, instead of 80 μM as previously reported. […] The activity dependence on ligand structural features may be mainly explained by the different ability for intercalation into the fibrils, as already assumed for other inhibitors. […] The data obtained for compounds 6 and 7 indicate that the presence of R1 = F, -NO2 substituents in the BIM have some small positive effect on the inhibition of Aβ aggregation.
The Aβ peptide was treated with 1,1,1,3,3,3-hexafluoropropan-2-ol (HFIP) and dissolved in a CH3CN/Na2CO3 (300 μM)/NaOH (250 μM) (48.3:48.3:4.3, v/v/v) mixture in order to have a stable stock solution, avoiding self-aggregation of Aβ1–42. Then, the prepared 500 μM solution was diluted at 40 μM in phosphate buffer (0.215 M, pH 8.0).
The solutions of the tested compounds were prepared in MeOH (1 mg/mL), being further diluted in phosphate buffer to a concentration of 480 μM. For copper-induced aggregation studies, a solution of CuCl2 240 μM was prepared from a stock standard solution (0.015 M). To perform the assays for the Aβ1–42 aggregation inhibition, a reported method, based on the fluorescence emission of thioflavin T (ThT), was followed. Aβ1–42 (40 μM) was incubated at 37 °C, for 24 h with or without Cu(II) (40 μM) in a phosphate buffer in presence or absence of the single ligand (40 μM and 20 μM for compound 4). Then, the samples were added to a 96-well plate with […] of 5 μM ThT in 50 mM glycine-NaOH (pH 8.5) buffer. Blank samples were prepared without the peptide for each concentration. The ThT fluorescence was measured at 446 nm (excitation) and 485 nm (emission). The inhibition percentage of aggregation was calculated by Equation (2), in which IFi and IF0 corresponded to the fluorescence intensities, in the presence and in the absence of the tested compound, subtracted of the fluorescence intensities due to the respective blanks.
The reported values were obtained as the mean ± SEM of duplicate of three different experiments.

Aβ1–42 with Cu(II) [2] = target: T1, Aβ1–42 with Cu(II); design: method as in PMID 32171933; conditions: copper 40 µM; footnote e; cited from earlier work
[3] = Cu(II) chelation by potentiometry; format: physicochemical; conditions: pH 7.4; read-out: conditional dissociation constant (K´d) for the copper complex
[4] = pH 7.4, CL/CM = 10, CM = 10^−6 M; cited from earlier work
[5] = 50% w/w DMSO/water, I = 0.1 M KCl, 25.0 °C; cited from earlier work
[6] = pH 7.4, CL/CM = 10, CM = 10^−6 M; cited from earlier work; remark: listed apart in the source
Aβ1–42 = target: T2, Aβ1–42 (Homo sapiens, UniProt P05067); design: method as in PMID 32171933; conditions: footnote e; cited from earlier work
T2 construct: Aβ1–42 (40 μM) was incubated at 37 °C, for 24 h with or without Cu(II) (40 μM)

[7] = target: T3, AChE (type VI-S, from electric eel) (Electrophorus electricus, UniProt O42275); conditions: read-out: TcAChE Inhibition IC50; cited from earlier work
T3 construct: purchased type VI-S
T3 sequence (O42275 24-633): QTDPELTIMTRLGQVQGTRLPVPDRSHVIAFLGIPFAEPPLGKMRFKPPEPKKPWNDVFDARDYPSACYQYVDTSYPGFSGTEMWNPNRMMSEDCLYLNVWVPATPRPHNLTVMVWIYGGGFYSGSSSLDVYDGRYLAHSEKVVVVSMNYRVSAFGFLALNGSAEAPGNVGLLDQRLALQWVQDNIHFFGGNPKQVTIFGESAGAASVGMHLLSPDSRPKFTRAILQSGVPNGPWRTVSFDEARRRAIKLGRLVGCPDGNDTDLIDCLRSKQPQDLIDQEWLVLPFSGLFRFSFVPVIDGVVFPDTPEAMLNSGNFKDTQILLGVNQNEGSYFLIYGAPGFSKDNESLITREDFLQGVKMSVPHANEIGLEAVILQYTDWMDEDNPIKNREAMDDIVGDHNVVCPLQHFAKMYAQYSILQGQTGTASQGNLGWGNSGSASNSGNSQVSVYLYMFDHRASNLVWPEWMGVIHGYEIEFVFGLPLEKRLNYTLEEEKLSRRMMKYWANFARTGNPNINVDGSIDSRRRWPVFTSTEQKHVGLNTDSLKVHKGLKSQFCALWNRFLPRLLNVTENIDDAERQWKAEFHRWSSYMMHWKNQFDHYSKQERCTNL

T1 sequence (P05067 672-713): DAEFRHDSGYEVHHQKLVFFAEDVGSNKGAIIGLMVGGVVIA
T2 sequence (P05067 672-713): as above

O=C(NCC1CCN(Cc2ccccc2)CC1)c1cccc2[nH]c(-c3ccccc3O)nc12 [Compound 5]
increase on Cu-induced Aβ aggregation (inhibition) relative to the self-induced one (Aβ1–42 with Cu(II) [1]): more than 50%
Aβ1–42 Aggregation Inhibition, Cu-Induced (Aβ1–42 with Cu(II) [2]): 58.9 ^e %
Kd [3]: 0.000254 µM
pZn (pM = −log[M]) [4]: 6.4
log K1, stepwise protonation constant (011) [5]: 8.98(2)
log K2, stepwise protonation constant (021) [5]: 7.78(4)
log K3, stepwise protonation constant (031) [5]: 2.86(5)
pCu (pM = −log[M]) [6]: 14.3
Aβ1–42 Aggregation Inhibition, Self-Induced (Aβ1–42): 38.6 ^e %
IC50 [7]: 9 ± 1 µM
